Assay results from US6426229B1, “Chelating agent and detergent comprising the same” (Mitsubishi Rayon Co., Ltd., priority 1995, dated 2002).
One block for each molecule: values may come before it.

Test: Compression strength (hardening property) of powder stored under load for 2 months
Type: physicochemical
Details: 20-30° C., relative humidity 40-70%
Description: Method for the Measurement of Compression Strength
(1) A test sample (500 g) is put in a poly-ethylene bag of 20 cm×20 cm in a room at a temperature of 20-30° C. and a relative humidity of 40-70%. The powder is levelled to an area of 20 cm×20 cm and air is forced out of the bag, and, then, the bag is sealed. This bag is further put in a kraft bag and this kraft bag is sealed.
(2) The kraft bag of (1) is placed horizontally on a flat plate and a plate is put thereon. […]
(3) With keeping the temperature of 20-30° C. and the relative humidity of 40-70%, the test sample is taken out after lapse of 2 months from the starting of application of load. Several test pieces (4 cm long×4 cm broad×2 cm high) are cut out from the sample.

[1] = Load 100 (table head [Kg]; text 100 g/cm^2)
[2] = Load 200 (table head [Kg]; text 200 g/cm^2)
[3] = Load 300 (table head [Kg]; text 300 g/cm^2)

Compression strength after stored for 2 months [1]: 2.5 Kg/cm^2
Molecule: O=C(O)C[C@H](NCC(O)CN[C@@H](CC(=O)O)C(=O)O)C(=O)O [compound 25, (S,S)-2-hydroxy-1,3-propanediaminedisuccinic acid, reference compound]

Compression strength after stored for 2 months [1]: 1.1 Kg/cm^2
Molecule: CN(CC(=O)O)CC(=O)O [Example 38, N-methyliminodiacetic acid]

Compression strength after stored for 2 months [3]: 1.0 Kg/cm^2
Molecule: O=C([O-])CN(CCS(=O)(=O)[O-])CC(=O)[O-].[Na+].[Na+].[Na+] [Example 31, trisodium salt of taurine-N,N-diacetic acid]

Compression strength after stored for 2 months [1]: 3.2 Kg/cm^2
Molecule: O=C([O-])C[C@@H](C(=O)[O-])N(CC(=O)[O-])CC(=O)[O-].[Na+].[Na+].[Na+].[Na+] [compound 3, tetrasodium salt of (S)-aspartic acid-N,N-diacetic acid, reference compound]

Compression strength after stored for 2 months [2]: 1.3 Kg/cm^2
Molecule: O=C([O-])C[C@H](NCCCN[C@@H](CC(=O)[O-])C(=O)[O-])C(=O)[O-].[Na+].[Na+].[Na+].[Na+] [Example 49, tetrasodium (S,S)-1,3-propanediaminedisuccinate]

Compression strength after stored for 2 months [2]: 1.2 Kg/cm^2
Molecule: O=C([O-])C[C@H](NCC(O)CN[C@@H](CC(=O)[O-])C(=O)[O-])C(=O)[O-].[Na+].[Na+].[Na+].[Na+] [Example 50, tetrasodium (S,S)-2-hydroxy-1,3-propanediaminedisuccinate]

Compression strength after stored for 2 months [1]: 2.6 Kg/cm^2
Molecule: C[C@@H](C(=O)O)N(CC(=O)O)CC(=O)O [compound 8, (S)-α-alanine-N,N-diacetic acid, reference compound]

Compression strength after stored for 2 months [3]: 0.9 Kg/cm^2
Molecule: C[C@@H](C(=O)O)N(CC(=O)O)CC(=O)O [Example 24, (S)-α-alanine-N,N-diacetic acid]

Compression strength after stored for 2 months [1]: 2.8 Kg/cm^2
Molecule: C[C@@H](C(=O)[O-])N(CC(=O)[O-])CC(=O)[O-].[Na+].[Na+].[Na+] [compound 4, trisodium salt of (S)-α-alanine-N,N-diacetic acid, reference compound]

Compression strength after stored for 2 months [1]: 3.3 Kg/cm^2
Molecule: O=C(O)CN(CCS(=O)(=O)O)CC(=O)O [compound 12, taurine-N,N-diacetic acid, reference compound]

Compression strength after stored for 2 months [1]: 1.3 Kg/cm^2
Molecule: O=C([O-])CN(CCS(=O)(=O)[O-])CC(=O)[O-].[Na+].[Na+].[Na+] [Example 28, trisodium salt of taurine-N,N-diacetic acid]

Compression strength after stored for 2 months [3]: 0.9 Kg/cm^2
Molecule: O=C(O)CN(CCS(=O)(=O)O)CC(=O)O [Example 40, taurine-N,N-diacetic acid]

Compression strength after stored for 2 months [3]: 1.0 Kg/cm^2
Molecule: CN(CC(=O)O)CC(=O)O [Example 41, N-methyliminodiacetic acid]

Compression strength after stored for 2 months [2]: 1.1 Kg/cm^2
Molecule: O=C([O-])C[C@H](NCCCN[C@@H](CC(=O)[O-])C(=O)[O-])C(=O)[O-].[Fe+3].[NH4+] [Example 82, iron ammonium (S,S)-1,3-propanediaminedisuccinate]

Continued, molecule first:

Molecule: iron salt of anthranilic acid-N,N-diacetic acid [compound 15, reference compound]
Compression strength after stored for 2 months [1]: 2.5 Kg/cm^2

Molecule: C[C@@H](C(=O)[O-])N(CC(=O)[O-])CC(=O)[O-].[Na+].[Na+].[Na+] [Example 4, trisodium salt of (S)-α-alanine-N,N-diacetic acid]
Compression strength after stored for 2 months [2]: 1.1 Kg/cm^2

Molecule: O=C(O)CCN[C@@H](CC(=O)O)C(=O)O [Example 18, (S)-aspartic acid-N-monopropionic acid]
Compression strength after stored for 2 months [1]: 1.2 Kg/cm^2

Molecule: O=C(O)CN[C@@H](CC(=O)O)C(=O)O [Example 21, (S)-aspartic acid-N-monoacetic acid]
Compression strength after stored for 2 months [3]: 0.8 Kg/cm^2

Molecule: O=C([O-])CC(NCCCNC(CC(=O)[O-])C(=O)[O-])C(=O)[O-].[Na+].[Na+].[Na+].[Na+] (stereo not shown) [Example 53, tetrasodium 1,3-propanediaminedisuccinate]
Compression strength after stored for 2 months [1]: 0.8 Kg/cm^2

Molecule: C[C@@H](C(=O)[O-])N(CC(=O)[O-])CC(=O)[O-].[Na+].[Na+].[Na+] [Example 12, trisodium salt of (S)-α-alanine-N,N-diacetic acid]
Compression strength after stored for 2 months [3]: 0.9 Kg/cm^2

Molecule: O=C([O-])CC(NCCNC(CC(=O)[O-])C(=O)[O-])C(=O)[O-].[Fe+3].[NH4+] (stereo not shown) [Example 76, iron ammonium ethylenediaminedisuccinate]
Compression strength after stored for 2 months [2]: 1.1 Kg/cm^2

Molecule: O=C(O)CN(CC(=O)O)c1ccccc1C(=O)O [Example 42, anthranilic acid-N,N-diacetic acid]
Compression strength after stored for 2 months [3]: 1.1 Kg/cm^2

Molecule: O=C(O)C[C@H](NCCN[C@@H](CC(=O)O)C(=O)O)C(=O)O [Example 66, ethylenediaminedisuccinic acid]
Compression strength after stored for 2 months [1]: 0.8 Kg/cm^2

Molecule: O=C([O-])C[C@H](NCCN[C@@H](CC(=O)[O-])C(=O)[O-])C(=O)[O-].[Fe+3].[NH4+] [Example 79, iron ammonium (S,S)-ethylenediaminedisuccinate]
Compression strength after stored for 2 months [2]: 0.9 Kg/cm^2

Molecule: O=C([O-])CC(NCCNC(CC(=O)[O-])C(=O)[O-])C(=O)[O-].[Na+].[Na+].[Ni+2] (stereo not shown) [Example 78, nickel disodium ethylenediaminedisuccinate]
Compression strength after stored for 2 months [2]: 1.0 Kg/cm^2

Molecule: O=C(O)CN(CC(=O)O)c1ccccc1C(=O)O [Example 36, anthranilic acid-N,N-diacetic acid]
Compression strength after stored for 2 months [2]: 0.9 Kg/cm^2

Molecule: O=C([O-])CN[C@@H](CC(=O)[O-])C(=O)[O-].[Na+].[Na+].[Na+] [Example 9, trisodium salt of (S)-aspartic acid-N-monoacetic acid]
Compression strength after stored for 2 months [3]: 0.8 Kg/cm^2

Molecule: O=C([O-])C[C@H](NCCN[C@@H](CC(=O)[O-])C(=O)[O-])C(=O)[O-].[Fe+3].[NH4+] [compound 26, iron ammonium (S,S)-ethylenediaminedisuccinate, reference compound]
Compression strength after stored for 2 months [1]: 2.7 Kg/cm^2

Molecule: C[C@@H](C(=O)O)N(CC(=O)O)CC(=O)O [Example 20, (S)-α-alanine-N,N-diacetic acid]
Compression strength after stored for 2 months [1]: 1.0 Kg/cm^2

Molecule: O=C(O)C[C@H](NCCN[C@@H](CC(=O)O)C(=O)O)C(=O)O [Example 71, ethylenediaminedisuccinic acid]
Compression strength after stored for 2 months [3]: 1.2 Kg/cm^2

Molecule: O=C([O-])CN(CC(=O)[O-])c1ccccc1C(=O)[O-].[Fe+3] [Example 44, iron salt of anthranilic acid-N,N-diacetic acid]
Compression strength after stored for 2 months [1]: 1.0 Kg/cm^2

Molecule: C[C@@H](C(=O)[O-])N(CC(=O)[O-])CC(=O)[O-].[Na+].[Na+].[Na+] [Example 8, trisodium salt of (S)-α-alanine-N,N-diacetic acid]
Compression strength after stored for 2 months [1]: 1.0 Kg/cm^2

Molecule: O=C(O)CN[C@@H](CC(=O)O)C(=O)O [compound 5, (S)-aspartic acid-N-monoacetic acid, reference compound]
Compression strength after stored for 2 months [1]: 2.8 Kg/cm^2

Molecule: O=C([O-])C[C@H](NCCN[C@@H](CC(=O)[O-])C(=O)[O-])C(=O)[O-].[Na+].[Na+].[Na+].[Na+] [Example 47, tetrasodium (S,S)-ethylenediaminedisuccinate]
Compression strength after stored for 2 months [2]: 1.2 Kg/cm^2
